Here are results for one molecule from publication PMC8707861 (Tomography, 2021).

Data set [1] in a line: Stability by incubation in 10 mM cysteine solution (HPLC). In kind it is physicochemical. Here is the method: (§1) After different time intervals the content of the solutions was tested by HPLC method.
For data set [2] the following is noted: n-octanol/PBS pH 7.40, triplicate.
Description: The lipophilicity of the radioconjugates was characterised by the determination of the logarithm of distribution coefficient, logD, in the n-octanol/PBS (pH 7.40) system, which mimics the physiological conditions (Product Properties Test Guidelines OPPTS 830.7550, 1996). The 1 mL PBS solution of a given radioconjugate previously isolated from reaction mixture was introduced to a test tube containing 1 mL of n-octanol and vortexed for 1 min. After that, the test tube was centrifuged for 5 min at 5800 rpm to ensure complete separation of the layers. The activity of each layer was measured, using a well-type NaI(Tl) detector. […] The logD measurements of all radioconjugates were performed in triplicate.
A short description of data set [3]: Paper electrophoresis analysis (charge of the molecule). Format: physicochemical. Particulars: 0.01 M phosphate buffer pH 7.40, 200 V, 45 min. The protocol: Paper electrophoresis experiments were achieved on 20 × 1 cm chromatographic paper strips, Paper Chromedia GF 83 (Whatman), in the phosphate buffer (0.01 M, pH 7.40), using the midi horizontal electrophoresis unit (Sigma-Aldrich) device. For both radioconjugates, the experiments were carried out at 200 V (10 V cm^−1) for 45 min and then the distribution of radioactivity on the strips was determined using a Storage Phosphor System Cyclone Plus (Perkin-Elmer Life and Analytical Sciences, Downers Grove, IL, USA).

For data set [4] the following is noted: human serum, 37 °C. The protocol: In the case of stability studies in human serum (HS), the solution of isolated radioconjugate in PBS (0.1 mL) was added to 0.9 mL of the human serum and incubated at 37 °C. After time periods up to 4 h, 0.2 mL of the incubated serum mixture were withdrawn, mixed in an Eppendorf tube with 0.5 mL ethanol and vigorously shaken to precipitate proteins. After centrifuging (14,000 rpm for 5 min) the γ-radiation of both the supernatant and precipitate was measured using the well-type NaI(Tl) detector. To check whether the radioconjugate had not converted into other water-soluble radioactive species, aliquots of the supernatant were analysed by HPLC.

Data set [5] has as its system P. aeruginosa ATCC 27,853. As to the kind of experiment: In vitro binding of radioconjugate to bacteria. Format: cell-based. Particulars: Pseudomonas aeruginosa, 37 °C. The protocol: (§2) Bacteria were cultured on Columbia Agar supplemented with 5% sheep blood (Graso Biotech, Starogard Gdański, Poland) at 37 °C in an aerobic atmosphere for 24 h. After incubation, a bacterial suspension with the turbidity 3 according to the McFarland standards (cell density approximately 9 × 10^8 CFU/mL) was prepared in PBS. […] The mixtures of bacteria and the radioconjugate were incubated in separated tubes for different time intervals at 37 °C without shaking. […] The supernatant was removed to a new tube, and the bacterial pellet was resuspended in 1 mL of PBS, then the sample was again centrifuged at 7000 rpm for 5 min. After second centrifugation, the supernatant was removed to a new tube and the bacterial pellet was again resuspended in 1 mL of PBS. The radioactivity measurement was performed for all three fractions, two supernatants, and a final bacterial pellet suspension. Experiments for each incubation time were triplicate.

The next data set concerns S. aureus ATCC 25,923. Description: In vitro binding of radioconjugate to bacteria. In kind it is cell-based. Particulars: Staphylococcus aureus, 37 °C. The protocol: as §2
The nature of data set [6]: Stability by incubation in 10 mM histidine solution (HPLC). Format: physicochemical. Here is the method:
as §1

The mark [7] stands for this setting: period of four half-lives of the radionuclide.

Each structure is given as a SMILES string. Read-outs that look alike come from different tables or passages of the source.

As usually defined, the logD is lipophilicity at a set pH, counting ionised and neutral species. Read a low logD as a more hydrophilic compound.

For the molecule `O=C(O)C[N+]12CC[N+]34CC[N+]5(CC(=O)N6CCN(c7cc8c(cc7F)c(=O)c(C(=O)O)cn8C7CC7)CC6)CC[N+]6(CC1)CC(=O)[O][68Ga-3]2365[O]C(=O)C4` (centres unmarked) [[^68Ga]Ga-DOTA-CIP], the “% of intact radioconjugate after incubation in CYS” value in data set [1] (10 mM CYS in PBS pH 7.4, 37 °C, after 4 h) is roughly 100%. The “Stability in CYS challenging solution (in words)” value in data set [1] (setting [7]) is “completely stable”. For the same molecule, the logD in data set [2] is −3.1 ± 0.1. Also, in data set [3], the “Charge of the molecule by electrophoresis” value is on record as “Negative charge”. Also, the “% of intact radioconjugate after incubation in HS” value in data set [4] (after 0.5 h), in data set [4] (after 1 h) and in data set [4] (after 4 h) was roughly 100% throughout. Besides, the “Stability in HS (in words)” value in data set [4] (for 68Ga period of four half-lives) is recorded as “completely stable”. The “Radioconjugate Uptake” value in data set [5] (binding time 30 min) came out at 0.82 ± 0.16%; in data set [5] (binding time 60 min), 1.29 ± 0.27%; in the data set on S. aureus ATCC 25,923 (binding time 30 min), 0.89 ± 0.11%; in the data set on S. aureus ATCC 25,923 (binding time 60 min) it was 1.1 ± 0.15%. The “% of intact radioconjugate after incubation in HIS” value in data set [6] (10 mM HIS in PBS pH 7.4, 37 °C, after 4 h) is recorded as roughly 100%. The “Stability in HIS challenging solution (in words)” value in data set [6] (setting [7]) is on record as “completely stable”.
